# Source: patent US12338253B2, “Nitrogen-containing polycyclic fused ring compound, pharmaceutical composition thereof, preparation method therefor and use thereof” (APPLIED PHARMACEUTICAL SCIENCE, INC., priority 2019, dated 2025)
# Tests used:
# TT Cell = assay: TT cell activity test (CelltiterGlo, 72 h); type: cell-based, human; conditions: for IC50: Homo sapiens, TT cell line, 72 h, CTG; for inhibitory activity on TT cells compared with cabozantinib: comparison in words
# Description: 2.3 Data Processing % Inhibition (inhibition rate)=100*(HC−test compound well reading)/(HC−LC) • High control (HC, reading control without inhibition): 0.5% DMSO • Low control (LC, control with compound inhibition): 1 μM CEP-32496
# The IC50 values were calculated using GraphPad Prism 6 software. Y=Bottom+(Top−Bottom)/(1+10^((Log IC50−X)*HillSlope)); • X: log of cpd concentration; • Y: % inhibition; • Top and Bottom: plateaus in same units as Y; • Log IC50: same log units as X; and • HillSlope: slope factor The Cell Results are Shown in Table 5: […]
# RET G810R = RET G810R (Homo sapiens (Human), UniProt P07949, G810R); assay: HTRF kinase activity test, RET G810R; type: biochemical; conditions: for IC50: HTRF KinEASE-TK; for inhibitory activity on RET G810R compared with cabozantinib and selpercatinib (LOXO-292): comparison in words
# Sequence of RET G810R (P07949 29-1114 G810R): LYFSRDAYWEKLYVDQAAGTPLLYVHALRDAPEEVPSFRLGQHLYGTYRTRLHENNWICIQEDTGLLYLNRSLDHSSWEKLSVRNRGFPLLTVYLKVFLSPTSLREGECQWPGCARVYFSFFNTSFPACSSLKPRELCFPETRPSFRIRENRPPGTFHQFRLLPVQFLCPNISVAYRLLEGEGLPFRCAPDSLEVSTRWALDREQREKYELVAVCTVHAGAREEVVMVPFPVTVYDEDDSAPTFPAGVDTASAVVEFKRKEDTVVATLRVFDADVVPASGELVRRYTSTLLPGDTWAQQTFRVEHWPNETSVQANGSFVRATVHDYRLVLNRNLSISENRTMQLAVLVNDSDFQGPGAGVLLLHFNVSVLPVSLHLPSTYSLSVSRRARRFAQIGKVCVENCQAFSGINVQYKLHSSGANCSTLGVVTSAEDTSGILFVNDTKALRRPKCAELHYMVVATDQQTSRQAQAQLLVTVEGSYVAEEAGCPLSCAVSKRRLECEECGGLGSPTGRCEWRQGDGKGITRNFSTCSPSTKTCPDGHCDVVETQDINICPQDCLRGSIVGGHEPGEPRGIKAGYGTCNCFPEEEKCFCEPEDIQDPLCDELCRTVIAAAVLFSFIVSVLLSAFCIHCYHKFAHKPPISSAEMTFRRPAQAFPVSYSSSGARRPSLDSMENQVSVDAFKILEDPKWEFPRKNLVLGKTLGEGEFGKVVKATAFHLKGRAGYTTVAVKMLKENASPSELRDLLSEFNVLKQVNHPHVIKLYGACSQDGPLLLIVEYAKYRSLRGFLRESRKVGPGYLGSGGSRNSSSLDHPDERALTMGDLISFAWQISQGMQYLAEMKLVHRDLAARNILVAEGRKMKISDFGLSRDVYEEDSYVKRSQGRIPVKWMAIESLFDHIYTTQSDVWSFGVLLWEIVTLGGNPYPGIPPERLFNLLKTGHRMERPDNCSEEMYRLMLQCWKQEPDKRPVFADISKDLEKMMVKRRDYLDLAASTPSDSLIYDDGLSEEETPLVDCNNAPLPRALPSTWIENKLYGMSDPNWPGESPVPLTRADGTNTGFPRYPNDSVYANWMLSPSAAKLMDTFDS
SMILES,IC50 (TT Cell) [µM],inhibitory activity on TT cells compared with cabozantinib (TT Cell),IC50 (RET G810R) [µM],inhibitory activity on RET G810R compared with cabozantinib and selpercatinib (LOXO-292) (RET G810R)
"COc1ccc(CN2C3CC2CN(c2cnc(-c4cc(OCC(F)F)cn5nc6[nH]ncc6c45)cn2)C3)cn1 [Compound 25, 6-(2,2-difluoroethoxy)-4-(5-(6-((6-methoxypyridin-3-yl)methyl)-3,6-diazabicyclo[3.3.1]heptan-3-yl)pyrazin-2-yl)-1H-pyrazolo[3′,4′:3,4]pyrazolo[1,5-a]pyridine]",0.0234,significantly better than that of cabozantinib,0.0043,significantly better than that of cabozantinib and selpercatinib (LOXO-292)
"CCN(CC)C(=O)N1CCN(c2ccc(-c3cc(OCCF)cn4nc5[nH]ncc5c34)cn2)CC1 [Compound 18, N,N-diethyl-4-(5-(6-(2-fluoroethoxy)-1H-pyrazolo[3′,4′:3,4]pyrazolo[1,5-a]pyridin-4-yl)pyridin-2-yl)piperazine-1-carboxamide]",0.0782,significantly better than that of cabozantinib,0.0189,significantly better than that of cabozantinib and selpercatinib (LOXO-292)
"COc1cc2nccc(Oc3ccc(NC(=O)C4(C(=O)Nc5ccc(F)cc5)CC4)cc3)c2cc1OC [Cabozantinib, reference compound]",0.143,–,–,–
CCOc1cc(-c2ccc(N3CC4CC(C3)N4Cc3ccc(OC)nc3)nc2)c2c3c(C)n[nH]c3nn2c1 [Compound 35],0.296,–,–,–
"COc1ccc(CN2C3CC2CN(c2ccc(-c4cc(C#N)cn5nc6[nH]ncc6c45)cn2)C3)cn1 [Compound 5, 4-(6-(6-((6-methoxypyridin-3-yl)methyl)-3,6-diazabicyclo[3.3.1]heptan-3-yl)pyridin-3-yl)-1H-pyrazolo[3′,4′:3,4]pyrazolo[1,5-a]pyridine-6-carbonitrile]",0.0118,significantly better than that of cabozantinib,0.0384,significantly better than that of cabozantinib and selpercatinib (LOXO-292)
"COc1cc(-c2cnc(N3CC4CC(C3)N4Cc3ccc(OC)nc3)cn2)c2c3cn[nH]c3nn2c1 [Compound 24, 6-methoxy-4-(5-(6-((6-methoxypyridin-3-yl)methyl)-3,6-diazabicyclo[3.3.1]heptan-3-yl)pyrazin-2-yl)-1H-pyrazolo[3′,4′:3,4]pyrazolo[1,5-a]pyridine]",0.0224,significantly better than that of cabozantinib,0.0023,significantly better than that of cabozantinib and selpercatinib (LOXO-292)
"CO[C@@H](C(=O)N1CCN(c2ccc(-c3cc(OCCF)cn4nc5[nH]ncc5c34)cn2)CC1)c1ccccc1 [Compound 21, (R)-1-(4-(5-(6-(2-fluoroethoxy)-1H-pyrazolo[3′,4′:3,4]pyrazolo[1,5-a]pyridin-4-yl)pyridin-2-yl)piperazin-1-yl)-2-methoxy-2-phenylethan-1-one]",0.0158,significantly better than that of cabozantinib,0.0006,significantly better than that of cabozantinib and selpercatinib (LOXO-292)
"COc1ccc(CN2C3CC2CN(c2ccc(-c4cc(N)cn5nc6[nH]ncc6c45)cn2)C3)cn1 [Compound 6, 4-(6-(6-((6-methoxypyridin-3-yl)methyl)-3,6-diazabicyclo[3.3.1]heptan-3-yl)pyridin-3-yl)-1H-pyrazolo[3′,4′:3,4]pyrazolo[1,5-a]pyridin-6-amine]",0.0194,significantly better than that of cabozantinib,–,–
"COc1ccc(CN2C3CC2CN(c2ccc(-c4cc(OC(F)F)cn5nc6[nH]ncc6c45)cn2)C3)cn1 [Compound 33, 6-(difluoromethoxy)-4-(6-(6-((6-methoxypyridin-3-yl)methyl)-3,6-diazabicyclo[3.3.1]heptan-3-yl)pyridin-3-yl)-1H-pyrazolo[3′,4′:3,4]pyrazolo[1,5-a]pyridine]",0.35,–,–,–
"COc1ccc(CN2C3CC2CN(c2ccc(-c4cc(OCc5ccccc5)cn5nc6[nH]ncc6c45)cn2)C3)cn1 [Compound 3, 6-(benzyloxy)-4-(6-(6-((6-methoxypyridin-3-yl)methyl)-3,6-diazabicyclo[3.3.1]heptan-3-yl)pyridin-3-yl)-1H-pyrazolo[3′,4′:3,4]pyrazolo[1,5-a]pyridine]",0.0328,significantly better than that of cabozantinib,0.0162,significantly better than that of cabozantinib and selpercatinib (LOXO-292)
COc1ccc(CN2C3CC2CN(c2ccc(-c4cc(OCCO)cn5nc6[nH]ncc6c45)cn2)C3)cn1 [Compound 10],0.0123,significantly better than that of cabozantinib,0.0038,significantly better than that of cabozantinib and selpercatinib (LOXO-292)
"COc1ccc(CN2C3CC2CN(c2ccc(-c4cc(OCCCl)cn5nc6[nH]ncc6c45)cn2)C3)cn1 [Compound 14, 6-(2-chloroethoxy)-4-(6-(6-((6-methoxypyridin-3-yl)methyl)-3,6-diazabicyclo[3.3.1]heptan-3-yl)pyridin-3-yl)-1H-pyrazolo[3′,4′:3,4]pyrazolo[1,5-a]pyridine]",–,–,0.0022,significantly better than that of cabozantinib and selpercatinib (LOXO-292)
COc1ccc(CN2C3CC2CN(c2ccc(-c4cc(OCCCCF)cn5nc6[nH]ncc6c45)cn2)C3)cn1 [Compound 13],0.0107,significantly better than that of cabozantinib,0.0031,significantly better than that of cabozantinib and selpercatinib (LOXO-292)
"O=C([C@H](O)c1ccccc1)N1CCN(c2ccc(-c3cc(OCCF)cn4nc5[nH]ncc5c34)cn2)CC1 [Compound 20, (R)-1-(4-(5-(6-(2-fluoroethoxy)-1H-pyrazolo[3′,4′:3,4]pyrazolo[1,5-a]pyridin-4-yl)pyridin-2-yl)piperazin-1-yl)-2-hydroxy-2-phenylethan-1-one]",0.0278,significantly better than that of cabozantinib,0.0016,significantly better than that of cabozantinib and selpercatinib (LOXO-292)
COc1ccc(CN2C3CC2CN(c2ccc(-c4cc(OC[C@@H]5CNCCO5)cn5nc6[nH]ncc6c45)cn2)C3)cn1 [Compound 17],0.0113,–,–,–
COc1ccc(CN2C3CC2CN(c2ccc(-c4cc(OC(C)C)cn5nc6[nH]ncc6c45)cn2)C3)cn1 [Compound 29],0.0608,significantly better than that of cabozantinib,–,–
"COc1ccc(CN2C3CC2CN(c2ccc(-c4cc(OCC(C)(C)O)cn5nc6[nH]ncc6c45)cn2)C3)cn1 [Compound 8, 1-((4-(6-(6-((6-methoxypyridin-3-yl)methyl)-3,6-diazabicyclo[3.3.1]heptan-3-yl)pyridin-3-yl)-1H-pyrazolo[3′,4′:3,4]pyrazolo[1,5-a]pyridin-6-yl)oxy)-2-methylpropan-2-ol]",0.0144,significantly better than that of cabozantinib,–,–
"COc1ccc(CN2C3CC2CN(c2ccc(-c4cc(OCCBr)cn5nc6[nH]ncc6c45)cn2)C3)cn1 [Compound 15, 6-(2-bromoethoxy)-4-(6-(6-((6-methoxypyridin-3-yl)methyl)-3,6-diazabicyclo[3.3.1]heptan-3-yl)pyridin-3-yl)-1H-pyrazolo[3′,4′:3,4]pyrazolo[1,5-a]pyridine]",–,–,0.0079,significantly better than that of cabozantinib and selpercatinib (LOXO-292)
"COc1ccc(CN2C3CC2CN(c2ccc(-c4cc(OCCOCC5CC5)cn5nc6[nH]ncc6c45)cn2)C3)cn1 [Compound 28, 6-(2-(cyclopropylmethoxy)ethoxy)-4-(6-(6-((6-methoxypyridin-3-yl)methyl)-3,6-diazabicyclo[3.3.1]heptan-3-yl)pyridin-3-yl)-1H-pyrazolo[3′,4′:3,4]pyrazolo[1,5-a]pyridine]",0.0643,significantly better than that of cabozantinib,–,–
COc1ccc(CN2C3CC2CN(c2ccc(-c4cc(OCCOC5CC5)cn5nc6[nH]ncc6c45)cn2)C3)cn1 [Compound 34],0.0818,significantly better than that of cabozantinib,–,–
COc1ccc(CN2C3CC2CN(c2ccc(-c4cc(Br)cn5nc6[nH]ncc6c45)cn2)C3)cn1 [Compound 2],0.0422,significantly better than that of cabozantinib,–,–
"COc1ccc(CN2C3CC2CN(c2ccc(-c4cc(OCC5CC5)cn5nc6[nH]ncc6c45)cn2)C3)cn1 [Compound 37, 6-(cyclopropylmethoxy)-4-(6-(6-((6-methoxypyridin-3-yl)methyl)-3,6-diazabicyclo[3.3.1]heptan-3-yl)pyridin-3-yl)-1H-pyrazolo[3′,4′:3,4]pyrazolo[1,5-a]pyridine]",0.0292,significantly better than that of cabozantinib,–,–
